Assay results as given in US8394963B2, “Process for the preparation of esomeprazole magnesium dihydrate” (Cipla Limited, priority 2007, dated 2013).

Assay: Solubility checked using 0.1 g of the sample at 25-30° C.
Type: physicochemical
Settings: for Solubility (volume of solvent): 0.1 g of the sample at 25-30° C.
From the text: Polymorphs of a compound differ in physical properties such as crystal structure, dissolution and particle size.

SMILES	Solubility (volume of solvent) (Acetone) [mL]	Solubility (volume of solvent) (Ethyl acetate) [mL]	Solubility (volume of solvent) (Isopropyl acetate) [mL]	Solubility (volume of solvent) (Toluene) [mL]	Solubility, comparison of the polymorphic forms (Form II compared with Form I of thio intermediate (compound III))
COc1ccc2[nH]c(SCc3ncc(C)c(OC)c3C)nc2c1 [Form I, 5-methoxy-2-[[(4-methoxy-3,5-dimethyl-2-pyridinyl)-methyl]thio]-1H-benzimidazole, reference compound]	2.0	4.6	10.0	8.4	
COc1ccc2[nH]c(SCc3ncc(C)c(OC)c3C)nc2c1 [Form II, 5-methoxy-2-[[(4-methoxy-3,5-dimethyl-2-pyridinyl)-methyl]thio]-1H-benzimidazole]	4.6	12.0	13.0	15.0	less soluble than Form I
